Laboratory results published in PMC6385671, “An integrated-molecular-beacon based multiple exponential strand displacement amplification strategy for ultrasensitive detection of DNA methyltransferase activity” (Chemical Science, 2018).

Molecular target: Dam MTase (Escherichia coli, UniProt P0AEE8)
Experiment: coupled fluorescence assay (molecular beacon methylation, DpnI cleavage, strand displacement amplification) with commercial Dam MTase
Assay type: biochemical

Chain of Dam MTase (P0AEE8 whole entry): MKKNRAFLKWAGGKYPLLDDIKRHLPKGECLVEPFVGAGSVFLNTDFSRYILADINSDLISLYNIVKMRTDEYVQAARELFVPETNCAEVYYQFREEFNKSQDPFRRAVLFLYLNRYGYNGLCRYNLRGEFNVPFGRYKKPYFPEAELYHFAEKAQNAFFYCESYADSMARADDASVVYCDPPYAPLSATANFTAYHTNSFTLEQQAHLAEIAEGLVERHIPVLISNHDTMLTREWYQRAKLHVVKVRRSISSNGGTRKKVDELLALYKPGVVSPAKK

Question: Which IC50 does the source give for `O=c1[nH]cc(F)c(=O)[nH]1` [5-fluorouracil] here?
Answer: Its IC50 is 710 nM.
